In publication PMC4166607, “Distinct ETA Receptor Binding Mode of Macitentan As Determined by Site Directed Mutagenesis” (PLoS ONE, 2014):
Read-outs that look alike come from different tables or passages of the source. Square brackets hold non-standard residues; d marks the D form. Peptide text beside a SMILES is read from it.

Tests used:
ETA receptor [1] = target: T1, ETA receptor (Homo sapiens, UniProt P25101); experiment: cell-based
wildtype ETA receptor [2] = target: T2, wildtype ETA receptor (Homo sapiens, UniProt P25101)
[3] = target: T3, ETA receptor variant R326Q (Homo sapiens, UniProt P25101, R326Q)
[4] = target: T4, ETA receptor variant L322A (Homo sapiens, UniProt P25101, L322A)
[5] = target: T5, ETA receptor variant K329M (Homo sapiens, UniProt P25101, K329M)
[6] = target: T6, ETA receptor variant D351N (Homo sapiens, UniProt P25101, D351N)
[7] = target: T7, ETA receptor variant I355A (Homo sapiens, UniProt P25101, I355A)
[8] = target: T8, ETA receptor variant Q165A (Homo sapiens, UniProt P25101, Q165A)
wildtype ETA receptor [9] = target: T2, wildtype ETA receptor; experiment: cell-based
[10] = target: T3, ETA receptor variant R326Q; experiment: cell-based
[11] = target: T4, ETA receptor variant L322A; experiment: cell-based
[12] = target: T5, ETA receptor variant K329M; experiment: cell-based
[13] = target: T6, ETA receptor variant D351N; experiment: cell-based
[14] = target: T7, ETA receptor variant I355A; experiment: cell-based
[15] = target: T8, ETA receptor variant Q165A; experiment: cell-based
ETA receptor [16] = target: T1, ETA receptor; conditions: cited from earlier work; for ETA receptor occupancy half-life (t1/2): PASMC
[17] = cited from earlier work
[18] = cited from earlier work; remark: listed apart in the source
ETA receptor [19] = target: T1, ETA receptor; conditions: PASMC, 5 µM ET-1, 20 min stimulation, maximal ERA concentration 1 µM, arithmetic means, normalized to macitentan analogs 1 or 8 (100%)
[20] = pKa1, no method or reference printed
[21] = pKa2, no method or reference printed

T3 sequence (P25101 21-427 R326Q): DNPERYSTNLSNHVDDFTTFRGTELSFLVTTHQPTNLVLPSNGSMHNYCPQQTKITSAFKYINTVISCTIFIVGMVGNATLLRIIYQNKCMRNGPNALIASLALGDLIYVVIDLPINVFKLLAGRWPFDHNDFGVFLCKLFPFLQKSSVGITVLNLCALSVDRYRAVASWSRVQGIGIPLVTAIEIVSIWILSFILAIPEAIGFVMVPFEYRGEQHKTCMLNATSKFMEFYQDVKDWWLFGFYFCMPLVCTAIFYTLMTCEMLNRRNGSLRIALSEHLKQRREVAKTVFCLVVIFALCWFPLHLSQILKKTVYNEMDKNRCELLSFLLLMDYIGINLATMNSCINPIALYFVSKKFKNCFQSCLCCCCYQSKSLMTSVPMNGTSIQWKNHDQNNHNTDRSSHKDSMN
T5 sequence (P25101 21-427 K329M): as the sequence (P25101 21-427 R326Q) above, with Q306R, K309M counted along it
T6 sequence (P25101 21-427 D351N): as the sequence (P25101 21-427 R326Q) above, with Q306R, D331N counted along it
T7 sequence (P25101 21-427 I355A): as the sequence (P25101 21-427 R326Q) above, with Q306R, I335A counted along it
T1 sequence (P25101 21-427): as the sequence (P25101 21-427 R326Q) above, with Q306R counted along it
T2 sequence (P25101 21-427): as the sequence (P25101 21-427 R326Q) above, with Q306R counted along it
T8 sequence (P25101 21-427 Q165A): as the sequence (P25101 21-427 R326Q) above, with Q145A, Q306R counted along it
T4 sequence (P25101 21-427 L322A): as the sequence (P25101 21-427 R326Q) above, with L302A, Q306R counted along it

IC50 shift versus wildtype (fold) (wildtype ETA receptor [2])	IC50 shift versus wildtype (fold) [3]	IC50 shift versus wildtype (fold) [4]	IC50 shift versus wildtype (fold) [7]	IC50 (ETA receptor [1])	IC50 (wildtype ETA receptor [9])	IC50 [10]	IC50 [11]	IC50 [14]	SMILES	further results
–	–	–	–	–	–	–	–	–	CC(C)C[C@@H]1NC(=O)[C@@H](C(C)C)NC(=O)[C@@H]2CCCN2C(=O)[C@@H](CC(=O)O)NC(=O)[C@@H](Cc2c[nH]c3ccccc23)NC1=O [BQ123] (cyclo(L[dW][dD]P[dV]))	IC50 (ETA receptor [1]; log IC50 (M), calcium flux, PASMC, 4 nM–[…] nM ET-1 (EC80)): 1.26e-09 M
1.0 fold	317 fold	15 fold	2.9 fold	4.4e-10 M	2.8 nM	887 nM	41 nM	8.1 nM	COC(c1ccccc1)(c1ccccc1)[C@H](Oc1nc(C)cc(C)n1)C(=O)O [ambrisentan]	IC50 shift versus wildtype (fold) [5]: 0.2 fold; IC50 shift versus wildtype (fold) [6]: 1.6 fold; IC50 shift versus wildtype (fold) [8]: 1129 fold; IC50 [12]: 0.58 nM; IC50 [13]: 4.5 nM; IC50 [15]: 3160 nM; ETA receptor occupancy half-life (t1/2) (ETA receptor [16]): 1 min; pKa [17]: 3.5; logD [18]: −0.4
–	–	–	–	–	–	–	–	–	COc1ccccc1Oc1c(NS(=O)(=O)c2ccc(C(C)(C)C)cc2)nc(-c2ncccn2)nc1OCCO [bosentan]	Insurmountability (%) (ETA receptor [19]): 0%; pKa [17]: 5.1; logD [18]: 1.3
1 fold	26 fold	1.2 fold	32 fold	3.3e-11 M	0.085 nM	2.2 nM	0.1 nM	2.7 nM	COc1ccccc1Oc1c(NS(=O)(=O)c2ccc(C)cn2)nc(-c2ccnc(-c3nnn[nH]3)c2)nc1OCCO [clazosentan]	pKa (physchem; [20]): 4.5; pKa (physchem; [21]): 3.3
1 fold	7.1 fold	188 fold	0.3 fold	9.3e-11 M	0.17 nM	1.2 nM	32 nM	0.047 nM	CCCCNS(=O)(=O)Nc1ncnc(OCCOc2ncc(Br)cn2)c1-c1ccc(Br)cc1 [macitentan analog 1]	–
1 fold	7.1 fold	228 fold	0.8 fold	5.1e-10 M	4.8 nM	34 nM	1090 nM	3.9 nM	CCNS(=O)(=O)Nc1ncnc(OCCOc2ncc(Br)cn2)c1-c1ccc(Br)cc1 [macitentan analog 2]	–
–	–	–	–	8.5e-11 M	–	–	–	–	O=S(=O)(NCc1ccccc1)Nc1ncnc(OCCOc2ncc(Br)cn2)c1-c1ccc(Br)cc1 [macitentan analog 3]	–
–	–	–	–	1.2e-09 M	–	–	–	–	CCS(=O)(=O)Nc1ncnc(OCCOc2ncc(Br)cn2)c1-c1ccc(Br)cc1 [macitentan analog 4]	–
–	–	–	–	3.8e-10 M	–	–	–	–	CCCS(=O)(=O)Nc1ncnc(OCCOc2ncc(Br)cn2)c1-c1ccc(Br)cc1 [macitentan analog 5]	–
–	–	–	–	6.2e-10 M	–	–	–	–	CCCCS(=O)(=O)Nc1ncnc(OCCOc2ncc(Br)cn2)c1-c1ccc(Br)cc1 [macitentan analog 6]	–
1 fold	6.5 fold	66 fold	1.1 fold	3.9e-09 M	41 nM	268 nM	2690 nM	45 nM	CCCNS(=O)(=O)Nc1ncnc(OCCOc2ncc(OC)cn2)c1-c1ccc(Br)cc1 [macitentan analog 7]	–
–	–	–	–	6.5e-11 M	–	–	–	–	CCCNS(=O)(=O)Nc1ncnc(OCCOc2ncc(I)cn2)c1-c1ccc(Br)cc1 [macitentan analog 8]	–
1 fold	3.3 fold	136 fold	0.6 fold	4.7e-10 M	14 nM	46 nM	1900 nM	8.6 nM	CCCNS(=O)(=O)Nc1ncnc(OCCOc2ncc(Br)cn2)c1-c1ccc(Cl)cc1 [macitentan analog 9]	–
–	–	–	–	4.31e-07 M	–	–	–	–	CCCNS(=O)(=O)Nc1ncnc(OCCOc2ccc(Br)cc2)c1-c1ccc(Br)cc1 [macitentan analog 10]	–
–	–	–	–	3.5e-08 M	–	–	–	–	CCCNS(=O)(=O)Nc1ncnc(OCCCOc2ncc(Br)cn2)c1-c1ccc(Br)cc1 [macitentan analog 11]	–
–	–	–	–	2.55e-07 M	–	–	–	–	CCCNS(=O)(=O)Nc1ncnc(OCCCCOc2ncc(Br)cn2)c1-c1ccc(Br)cc1 [macitentan analog 12]	–
1 fold	50 fold	2.0 fold	54 fold	5.2e-11 M	0.26 nM	13 nM	0.53 nM	14 nM	COc1ccccc1Oc1c(NS(=O)(=O)c2ccc(C(C)C)cn2)nc(-c2ccnc(-c3nnn[nH]3)c2)nc1OCCO [tezosentan]	pKa (physchem; [20]): 4.4; pKa (physchem; [21]): 4.1

SMILES	IC50 shift versus wildtype (fold) (wildtype ETA receptor [2])	IC50 shift versus wildtype (fold) [3]	IC50 shift versus wildtype (fold) [4]	IC50 shift versus wildtype (fold) [7]	IC50 (ETA receptor [1])	IC50 (wildtype ETA receptor [9])	IC50 [10]	IC50 [11]	IC50 [14]	further results
CCCNS(=O)(=O)Nc1ncnc(OCCOc2ncc(Br)cn2)c1-c1ccc(Br)cc1 [macitentan, N-[5-(4-bromophenyl)-6-[2-[(5-bromo-2-pyrimidinyl)oxy]ethoxy]-4-pyrimidinyl]-N′-propylsulfamide]	1.0 fold	6.3 fold	148 fold	0.9 fold	1.7e-10 M	1.2 nM	7.6 nM	178 nM	1.1 nM	Insurmountability (%) (ETA receptor [19]): 64%; IC50 shift versus wildtype (fold) [5]: 0.5 fold; IC50 shift versus wildtype (fold) [6]: 1.2 fold; IC50 shift versus wildtype (fold) [8]: 174 fold; IC50 [12]: 0.58 nM; IC50 [13]: 1.5 nM; IC50 [15]: 209 nM; ETA receptor occupancy half-life (t1/2) (ETA receptor [16]): ~17 min; increase of receptor occupancy half-life compared to ambrisentan and bosentan (ETA receptor [16]; human primary PASMC): ~20 fold; logD [18]: 2.9
